{
  "source": "patent US11149018B2",
  "about": "“Substituted N-arylethyl-2-aminoquinoline-4-carboxamides and use thereof” (Bayer Aktiengesellschaft, priority 2017, dated 2021)",
  "data": [
    {"biological_target": "FP receptor (Homo sapiens (Human), UniProt P43088)", "sequence (P43088 whole entry)": "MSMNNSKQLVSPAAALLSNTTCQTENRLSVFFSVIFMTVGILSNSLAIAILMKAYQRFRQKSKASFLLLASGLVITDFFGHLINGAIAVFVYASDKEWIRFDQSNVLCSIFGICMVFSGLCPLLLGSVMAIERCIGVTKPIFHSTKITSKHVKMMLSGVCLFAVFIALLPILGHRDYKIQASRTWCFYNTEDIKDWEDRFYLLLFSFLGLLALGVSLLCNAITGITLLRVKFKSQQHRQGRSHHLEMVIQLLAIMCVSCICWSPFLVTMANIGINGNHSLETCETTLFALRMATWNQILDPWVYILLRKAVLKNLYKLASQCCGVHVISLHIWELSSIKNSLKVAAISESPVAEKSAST", "assay": "In vitro test of inhibition of human FP receptor activity (PGF2α-induced calcium flux in FP-expressing CHEM1 cells)", "type": "cell-based", "conditions": "PGF2α 2 nM, some mean values of multiple determinations", "procedure,_shortened": "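FP antagonism in FP-expressing CHEM1 cells loaded with Fluo-8. Compound preincubated 10 min at 37° C, then receptor stimulated with 2 nM (final) PGF2α in calcium-free Tyrode with 2 mM CaCl2.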", "units": {"IC50": "nM"}, "values": [
      {"molecule": "COc1ccccc1C(CCC(=O)O)CNC(=O)c1c(C)c(N2CCCCC2)nc2ccc(Br)cc12", "note": "(single isomer, unassigned; (+)) [Example 235, (+)-5-({[6-Bromo-3-methyl-2-(piperidin-1-yl)quinolin-4-yl]carbonyl}amino)-4-(2-methoxyphenyl)pentanoic acid]", "IC50": 1.4},
      {"molecule": "COc1ccccc1C(CCC(=O)O)CNC(=O)c1c(C)c(N2CCCC2)nc2ccc(Br)cc12", "note": "(single isomer, unassigned; (-)) [Example 238, (−)-5-({[6-Bromo-3-methyl-2-(pyrrolidin-1-yl)quinolin-4-yl]carbonyl}amino)-4-(2-methoxyphenyl)pentanoic acid]", "IC50": 44},
      {"molecule": "Cc1c(N2CCCC2)nc2ccc(Br)cc2c1C(=O)NCC(CCC(=O)O)c1ccccc1C(F)(F)F", "note": "(single isomer, unassigned; (+)) [Example 115, (+)-5-({[6-Bromo-3-methyl-2-(pyrrolidin-1-yl)quinolin-4-yl]carbonyl}amino)-4-[2-(trifluoromethyl)phenyl]pentanoic acid]", "IC50": 29},
      {"molecule": "Cc1c(N2CCCC(C)C2)nc2ccc(Br)cc2c1C(=O)NCC(CCC(=O)O)c1ccccc1C(F)(F)F", "note": "(single isomer, unassigned; (-)) [Example 199, (−)-5-[({6-Bromo-3-methyl-2-[3-methylpiperidin-1-yl]quinolin-4-yl}carbonyl)amino]-4-[2-(trifluoromethyl)phenyl]pentanoic acid]", "IC50": 1.6},
      {"molecule": "(+)-5-[({6-Bromo-3-methyl-2-[(^2H10)piperidin-1-yl]quinolin-4-yl}carbonyl)amino]-4-[2-(trifluoromethyl)phenyl]pentanoic acid [Example 270]", "IC50": 3.3},
      {"molecule": "Cc1c(NCCc2ccccc2)nc2ccc(Br)cc2c1C(=O)NCC(CCC(=O)O)c1ccccc1Cl", "note": "(racemic) [Example 94, (+/−)-5-[({6-Bromo-3-methyl-2-[(2-phenylethyl)amino]quinolin-4-yl}carbonyl)amino]-4-(2-chlorophenyl)pentanoic acid]", "IC50": 15},
      {"molecule": "Cc1c(N2CCCC(F)(F)C2)nc2ccc(Br)cc2c1C(=O)NCC(CCC(=O)O)c1c(Cl)ccc(Cl)c1Cl", "note": "(racemic) [Example 177, (+/−)-5-({[6-Bromo-2-(3,3-difluoropiperidin-1-yl)-3-methylquinolin-4-yl]carbonyl}amino)-4-(2,3,6-trichlorophenyl)pentanoic acid]", "IC50": 10},
      {"molecule": "Cc1c(N2CC3CC(C3)C2)nc2ccc(Br)cc2c1C(=O)NCC(CCC(=O)O)c1ccccc1Cl", "note": "(racemic) [Example 73, (+/−)-5-[({2-[3-Azabicyclo[3.1.1]hept-3-yl]-6-bromo-3-methylquinolin-4-yl}carbonyl)amino]-4-(2-chlorophenyl)pentanoic acid]", "IC50": 48},
      {"molecule": "Cc1c(N2CC[C@@H](F)C2)nc2ccc(Br)cc2c1C(=O)NCC(CCC(=O)O)c1ccccc1Cl", "note": "(stereo partly drawn) [Example 66, 5-[({6-Bromo-2-[(3R)-3-fluoropyrrolidin-1-yl]-3-methylquinolin-4-yl}carbonyl)amino]-4-(2-chlorophenyl)pentanoic acid]", "IC50": 12},
      {"molecule": "COCC1CCCN(c2nc3ccc(Br)cc3c(C(=O)NCC(CCC(=O)O)c3ccccc3Cl)c2C)C1", "note": "(stereo not shown) [Example 93, 5-[({6-Bromo-2-[3-(methoxymethyl)piperidin-1-yl]-3-methylquinolin-4-yl}carbonyl)amino]-4-(2-chlorophenyl)pentanoic acid]", "IC50": 80},
      {"molecule": "Cc1c(N2CCCCCC2)nc2ccc(Br)cc2c1C(=O)NCC(CCC(=O)O)c1c(F)ccc(F)c1Cl", "note": "(single isomer, unassigned) [Example 220, 5-({[2-(Azepan-1-yl)-6-bromo-3-methylquinolin-4-yl]carbonyl}amino)-4-(2-chloro-3,6-difluorophenyl)pentanoic acid]", "IC50": 0.76},
      {"molecule": "Cc1c(N2CCC[C@H]2C)nc2ccc(Br)cc2c1C(=O)NCC(CCC(=O)O)c1ccccc1Cl", "note": "(single isomer, unassigned; (+)) [Example 82]", "IC50": 3.9},
      {"molecule": "CCC1CCCN(c2nc3ccc(Br)cc3c(C(=O)NCC(CCC(=O)O)c3c(F)cccc3F)c2C)C1", "note": "(stereo not shown) [Example 254, 5-[({6-Bromo-2-(3-ethylpiperidin-1-yl)-3-methylquinolin-4-yl}carbonyl)amino]-4-(2,6-difluorophenyl)pentanoic acid]", "IC50": 2.8},
      {"molecule": "Cc1c(N2CCCC2)nc2ccc(Br)cc2c1C(=O)NCC(CCC(=O)O)c1c(Cl)ccc(Cl)c1Cl", "note": "(racemic) [Example 174, (+/−)-5-({[6-Bromo-3-methyl-2-(pyrrolidin-1-yl)quinolin-4-yl]carbonyl}amino)-4-(2,3,6-trichlorophenyl)pentanoic acid]", "IC50": 11},
      {"molecule": "Cc1c(N2CC[C@H](F)C2)nc2ccc(Br)cc2c1C(=O)NCC(CCC(=O)O)c1ccccc1Cl", "note": "(stereo partly drawn) [Example 65, 5-[({6-Bromo-2-[(3S)-3-fluoropyrrolidin-1-yl]-3-methylquinolin-4-yl}carbonyl)amino]-4-(2-chlorophenyl)pentanoic acid]", "IC50": 110},
      {"molecule": "Cc1c(N2CNC(=O)C2)nc2ccc(Br)cc2c1C(=O)NCC(CCC(=O)O)c1ccccc1Cl", "note": "(racemic) [Example 88, (+/−)-5-({[6-Bromo-3-methyl-2-(4-oxoimidazolidin-1-yl)quinolin-4-yl]carbonyl}amino)-4-(2-chlorophenyl)pentanoic acid]", "IC50": 880},
      {"molecule": "Cc1c(N2CCCCC2)nc2ccc(Br)cc2c1C(=O)NCC(CC(=O)O)c1c(F)cccc1Cl", "note": "(single isomer, unassigned; (+)) [Example 3, (+)-4-({[6-Bromo-3-methyl-2-(piperidin-1-yl)quinolin-4-yl]carbonyl}amino)-3-(2-chloro-6-fluorophenyl)butanoic acid]", "IC50": 92},
      {"molecule": "Cc1c(N2CCCCC2)nc2ccc(Br)cc2c1C(=O)NCC(CCC(=O)O)c1cccc(F)c1Cl", "note": "(single isomer, unassigned; (-)) [Example 142, (−)-5-({[6-Bromo-3-methyl-2-(piperidin-1-yl)quinolin-4-yl]carbonyl}amino)-4-(2-chloro-3-fluorophenyl)pentanoic acid]", "IC50": 4.3},
      {"molecule": "Cc1c(NC2CCCC2)nc2ccc(Br)cc2c1C(=O)NCC(CCC(=O)O)c1ccccc1Cl", "note": "(racemic) [Example 103, (+/−)-5-({[6-Bromo-2-(cyclopentylamino)-3-methylquinolin-4-yl]carbonyl}amino)-4-(2-chlorophenyl)pentanoic acid]", "IC50": 340},
      {"molecule": "Cc1c(NC2CCC2)nc2ccc(Br)cc2c1C(=O)NCC(CCC(=O)O)c1ccccc1Cl", "note": "(racemic) [Example 97, (+/−)-5-({[6-Bromo-2-(cyclobutylamino)-3-methylquinolin-4-yl]carbonyl}amino)-4-(2-chlorophenyl)pentanoic acid]", "IC50": 530},
      {"molecule": "Cc1c(N2CCCC(C#N)C2)nc2ccc(Br)cc2c1C(=O)NCC(CCC(=O)O)c1ccccc1Cl", "note": "(stereo not shown) [Example 76, 5-[({6-Bromo-2-[3-cyanopiperidin-1-yl]-3-methylquinolin-4-yl}carbonyl)amino]-4-(2-chlorophenyl)pentanoic acid]", "IC50": 670},
      {"molecule": "Cc1c(N2CCCC(F)C2)nc2ccc(Br)cc2c1C(=O)NCC(CCC(=O)O)c1ccccc1C(F)(F)F", "note": "(stereo not shown) [Example 123, 5-[({6-Bromo-2-[3-fluoropiperidin-1-yl]-3-methylquinolin-4-yl}carbonyl)amino]-4-[2-(trifluoromethyl)phenyl]pentanoic acid]", "IC50": 13}
    ]}
  ]
}
